Key:
CK2 holoenzyme = CK2 holoenzyme (Homo sapiens (Human), UniProt P68400); assay: capillary electrophoretic CK2 inhibition/activity test (E-peptide substrate); type: biochemical; conditions: for CK2-activity at 10 μM: residual CK2 activity at 10 μM substance, values below 4% not reliably quantifiable; for IC50: capillary electrophoretic test, ten minutes pre-incubation
Protocol: To this end, the capillary electrophoretic CK2 inhibition test using E-peptide as the substrate was carried out. […] Ten concentrations between 0.0001 μM and 10 μM were investigated for this purpose.
Kuckländer (Kuckländer and Töberich, 1982; Bollig, 2007).

CK2 = conditions: prior-art value; read-out: IC50 (CK2, literature); cited from earlier work
[1] = prior art; lactam ring hydrolysis; cited from earlier work
LBK1 = LBK1 (Homo sapiens (Human), UniProt Q15831); assay: Reaction Biology radiometric kinase selectivity test; type: biochemical; conditions: 10 μM TF, 10 μM ATP
Protocol: (§1) The listed PKs were incubated with 10 μM TF and 10 μM ATP. Next, the relative percentage kinase activity was determined (mean value from n=2). 100% activity was defined as the activity of the respective kinase in the absence of TF. The PK grouping was in accordance with Manning et al. (2002).
(§2) After the inhibitory potency of TF had been able to be established in LNCaP cells, the possibility that TF could be a selective CK2 inhibitor had to be investigated. To this end, the inhibiting effect of TF on 63 isolated human protein kinases (PK) was investigated by the firm “Reaction Biology” (Malvern, Pa., USA). These included representatives of PKs from all main groups of the human kinome (Manning et al., 2002). The results of this investigation are shown in FIG. 8, classified into the main human PK groups. In this series of tests, all of the PKs were each incubated with 10 μM of ATP and 10 μM of TF. In a subsequent radiometric test, the respective kinase activity with respect to a sample without TF was determined. Since the KM values of PK with respect to ATP occasionally differed substantially (Knight and Shokat, 2005), the results only allow a semi-quantitative comparison of inhibition by TF to be made. […] However, the different test parameters, such as substrate and ATP concentration, buffer, etc., must be taken into account and so a direct comparison of the inhibition data as a percentage is not possible at this point. The seven PKs which were inhibited the most strongly (>70%) are listed separately in Table 3.

Aurora A = Aurora A (Homo sapiens (Human), UniProt O14965); assay: as above; type: biochemical; conditions: 10 μM TF, 10 μM ATP, relative kinase activity
Protocol: as §1, §2

PAK4 = PAK4 (Homo sapiens (Human), UniProt O96013); assay: as above; type: biochemical; conditions: 10 μM TF, 10 μM ATP
Protocol: as §1, §2

PKD2/PRKD2 = PKD2/PRKD2 (Homo sapiens (Human), UniProt Q9BZL6); assay: as above; type: biochemical; conditions: 10 μM TF, 10 μM ATP, relative kinase activity
Protocol: as §1, §2

LCK = LCK (Homo sapiens (Human), UniProt P06239); assay: as above; type: biochemical; conditions: 10 μM TF, 10 μM ATP, relative kinase activity
Protocol: as §1, §2

SGK1 (d1-59, S422D) = SGK1 (d1-59, S422D) (Homo sapiens (Human), UniProt O00141, S422D); assay: as above; type: biochemical; conditions: 10 μM TF, 10 μM ATP, relative kinase activity
Protocol: as §1, §2

FLT4/VEGFR3 = FLT4/VEGFR3 (Homo sapiens (Human), UniProt P35916); assay: as above; type: biochemical; conditions: 10 μM TF, 10 μM ATP, relative kinase activity
Protocol: as §1, §2

IRAK4 = IRAK4 (Homo sapiens (Human), UniProt Q9NWZ3); assay: as above; type: biochemical; conditions: 10 μM TF, 10 μM ATP
Protocol: as §1, §2

KDR/VEGFR2 = KDR/VEGFR2 (Homo sapiens (Human), UniProt P35968); assay: as above; type: biochemical; conditions: 10 μM TF, 10 μM ATP, relative kinase activity
Protocol: as §1, §2

MAPK14 = MAPK14 (Homo sapiens (Human), UniProt Q16539); assay: as above; type: biochemical; conditions: 10 μM TF, 10 μM ATP
Protocol: as §1, §2

PIM1 = PIM1 (Homo sapiens (Human), UniProt P11309); assay: as above; type: biochemical; conditions: 10 μM TF, 10 μM ATP, relative kinase activity
Protocol: as §1, §2

CK2α′ (CK2a2) = CK2α′ (CK2a2) (Homo sapiens (Human), UniProt P19784); assay: as above; type: biochemical; conditions: 10 μM TF, 10 μM ATP; read-out: residual activity CK2α′
Protocol: as §1, §2

CK2α (CK2a) = CK2α (CK2a) (Homo sapiens (Human), UniProt P68400); assay: as above; type: biochemical; conditions: 10 μM TF, 10 μM ATP; read-out: residual activity CK2α
[2] = tested on: PARP cleavage in LNCaP cells; assay: PARP cleavage in LNCaP cells (Western Blot); type: cell-based, human
Protocol: The controls were cells which had only been treated with DMSO (0 μM). After SDS-PAGE and Western Blotting, complete PARP (115 kDa) and the 89 kDa fragment obtained after caspase cleavage with the aid of an anti-PARP antibody were labelled.
Next, we investigated whether the TF-mediated reduction in cell viability could be related to apoptotic events. To this end, cleavage of poly(ADP-ribose)-polymerase (PARP) in cells was assayed. Caspase 3 cleaves the 115 kDa PARP into two stable fragments: the 24 kDa DNA-binding N-terminal domain and the 89 kDa C-terminal fragment. This specific proteolysis of PARP characterizes the irreversible point of initiation apoptosis and can be assayed in a Western Blot of cell lysates with a specific PARP antibody. […] This effect was observed both after an incubation time of 24 h and also, more strongly, after 48 h.

[3] = tested on: endogenous CK2 of LNCaP cells; assay: CK2 activity in lysates of treated LNCaP cells (radiometric test); type: cell-based, human; conditions: for endogenous CK2 activity of LNCaP cells: from 25 μM, 24 h or 48 h, relative to untreated cells
Protocol: The CK2 activity was determined using a radiometric test procedure. The relative activities of the samples were each relative to untreated cells. White bars show the CK2 activity after 24 h; grey bars show the CK2 activity after 48 h incubation with each inhibitor. For samples (A) treated with TF, double determinations were carried out (the mean value is given in each case).
LNCaP cells were incubated with TF in the same manner as in the experiments described above. After 24 h or 48 h, the CK2 activity of lysates was measured using radiometric CK2 testing. This investigation provided an indication as to whether the inhibition of TF found with the isolated enzyme could be observed in cellular systems. […] Cells were incubated for 24 h or 48 h with 25 μM, 50 μM or 75 μM of TF and then washed and lysed. The relative CK2 activity was calculated from these cell lysates. The reference was the CK2 activity of cell lysates from untreated cells incubated for corresponding periods. In order to compensate for any fluctuations in the radiometric test, in the case of TF, two samples per parameter were measured. As a qualitative control, the TBB samples were used and measured individually.
The observed reduction in CK2 activity was thus due to modulation of the CK2 enzyme activity. […] Altogether, it can be seen that TF reduces the endogenous CK2 activity in LNCaP cells. […] Proof of the inhibition of intracellular CK2 is provided by the ability of TF to permeate cells.

[4] = tested on: 63 isolated human protein kinases; assay: Selectivity profile over 63 isolated human protein kinases; type: biochemical; conditions: 10 μM TF, 10 μM ATP
Protocol: as §1
After the inhibitory potency of TF had been able to be established in LNCaP cells, the possibility that TF could be a selective CK2 inhibitor had to be investigated. To this end, the inhibiting effect of TF on 63 isolated human protein kinases (PK) was investigated by the firm “Reaction Biology” (Malvern, Pa., USA). These included representatives of PKs from all main groups of the human kinome (Manning et al., 2002). The results of this investigation are shown in FIG. 8, classified into the main human PK groups. In this series of tests, all of the PKs were each incubated with 10 μM of ATP and 10 μM of TF. In a subsequent radiometric test, the respective kinase activity with respect to a sample without TF was determined. Since the KM values of PK with respect to ATP occasionally differed substantially (Knight and Shokat, 2005), the results only allow a semi-quantitative comparison of inhibition by TF to be made. […]

LNCaP cells = assay: MTT test, viability of LNCaP cells; type: cell-based, human; conditions: relative to untreated cells; for viability at 25 µM / viability at 50 µM / viability at 75 µM: Homo sapiens, LNCaP
Protocol: The viability was determined with the aid of the MTT test.
A MTT test was used to determine the effect of TF on the viability of LNCaP cells. To this end, these cell lines were treated with three concentrations of TF (25 μM, 50 μM, 75 μM). The effect was determined after 24 h, 48 h and 72 h as the relative viability compared with untreated cells. […] After treating the LNCaP cells with TF, both the effects of increasing the concentration and also of prolonging the incubation time could be recorded. After 24 hours incubation with 25 μM of TF, the viability had already dropped to 45% and after the same incubation time with 50 μM of TF, it had dropped further to 30%. […] The effects after 24 h could be reinforced in each case by extending the incubation time. Thus, after 48 hours incubation with 25 μM, 50 μM and 75 μM of TF, a viability of 37%, 15% or 12% was observed. […] Thus, an incubation time of 24 h had only a small effect. […] Only at the highest concentration of 75 μM, a reduction to 45% after 48 h was recorded, and after 72 h, the viability was still 17% (FIG. 5B). […] In summary, it has been shown that the viability of LNCaP cells is reduced by both substances.

[5] = prior art; cited from earlier work

Chain of CK2 holoenzyme (P68400 whole entry): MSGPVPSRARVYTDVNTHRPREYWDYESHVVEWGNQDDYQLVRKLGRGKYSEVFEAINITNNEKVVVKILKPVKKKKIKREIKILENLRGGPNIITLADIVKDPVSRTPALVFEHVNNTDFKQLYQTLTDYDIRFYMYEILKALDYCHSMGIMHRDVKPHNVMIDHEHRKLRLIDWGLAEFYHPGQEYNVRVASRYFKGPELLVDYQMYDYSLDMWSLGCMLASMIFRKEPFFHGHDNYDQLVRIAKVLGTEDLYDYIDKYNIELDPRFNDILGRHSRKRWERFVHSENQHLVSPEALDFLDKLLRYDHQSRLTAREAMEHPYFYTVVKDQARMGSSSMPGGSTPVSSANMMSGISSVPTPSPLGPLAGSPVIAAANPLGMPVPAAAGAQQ
Chain of CK2 holoenzyme (P67870 whole entry partner): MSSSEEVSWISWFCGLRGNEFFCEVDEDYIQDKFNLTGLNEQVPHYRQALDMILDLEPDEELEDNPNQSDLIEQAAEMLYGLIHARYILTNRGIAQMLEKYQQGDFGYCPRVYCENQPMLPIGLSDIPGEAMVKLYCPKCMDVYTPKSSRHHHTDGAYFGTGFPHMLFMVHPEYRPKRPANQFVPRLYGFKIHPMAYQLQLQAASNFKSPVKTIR
Chain of PKD2/PRKD2 (Q9BZL6 whole entry): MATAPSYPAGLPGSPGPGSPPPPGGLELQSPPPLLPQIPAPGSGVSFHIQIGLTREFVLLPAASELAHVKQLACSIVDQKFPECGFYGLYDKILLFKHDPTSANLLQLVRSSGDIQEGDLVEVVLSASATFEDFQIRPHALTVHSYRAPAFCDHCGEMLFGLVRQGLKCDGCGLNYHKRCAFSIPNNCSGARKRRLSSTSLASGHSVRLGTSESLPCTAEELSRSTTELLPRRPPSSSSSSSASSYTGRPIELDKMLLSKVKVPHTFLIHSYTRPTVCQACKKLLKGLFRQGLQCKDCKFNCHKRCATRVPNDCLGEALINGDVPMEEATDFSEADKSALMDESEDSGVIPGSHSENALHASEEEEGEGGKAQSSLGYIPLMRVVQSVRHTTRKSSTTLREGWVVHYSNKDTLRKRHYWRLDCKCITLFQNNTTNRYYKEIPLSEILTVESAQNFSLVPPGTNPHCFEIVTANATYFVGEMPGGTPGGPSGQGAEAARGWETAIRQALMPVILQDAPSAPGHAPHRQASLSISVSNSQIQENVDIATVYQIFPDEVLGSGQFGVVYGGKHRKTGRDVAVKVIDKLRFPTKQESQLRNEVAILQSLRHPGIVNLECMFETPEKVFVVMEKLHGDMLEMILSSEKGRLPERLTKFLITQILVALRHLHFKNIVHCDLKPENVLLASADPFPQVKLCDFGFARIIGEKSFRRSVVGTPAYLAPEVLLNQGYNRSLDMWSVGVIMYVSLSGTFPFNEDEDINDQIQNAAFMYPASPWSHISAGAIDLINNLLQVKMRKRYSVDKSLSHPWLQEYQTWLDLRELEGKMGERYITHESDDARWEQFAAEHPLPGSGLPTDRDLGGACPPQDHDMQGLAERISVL
Chain of PIM1 (P11309 whole entry): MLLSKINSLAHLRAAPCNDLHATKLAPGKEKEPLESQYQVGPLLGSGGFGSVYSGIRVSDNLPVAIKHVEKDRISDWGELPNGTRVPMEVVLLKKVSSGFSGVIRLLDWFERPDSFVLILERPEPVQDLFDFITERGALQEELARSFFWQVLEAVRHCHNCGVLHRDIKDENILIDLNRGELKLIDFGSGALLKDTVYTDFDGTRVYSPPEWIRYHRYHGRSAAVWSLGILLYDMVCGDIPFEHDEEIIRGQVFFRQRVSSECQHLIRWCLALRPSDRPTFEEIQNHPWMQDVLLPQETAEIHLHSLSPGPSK
Chain of KDR/VEGFR2 (P35968 20-1356): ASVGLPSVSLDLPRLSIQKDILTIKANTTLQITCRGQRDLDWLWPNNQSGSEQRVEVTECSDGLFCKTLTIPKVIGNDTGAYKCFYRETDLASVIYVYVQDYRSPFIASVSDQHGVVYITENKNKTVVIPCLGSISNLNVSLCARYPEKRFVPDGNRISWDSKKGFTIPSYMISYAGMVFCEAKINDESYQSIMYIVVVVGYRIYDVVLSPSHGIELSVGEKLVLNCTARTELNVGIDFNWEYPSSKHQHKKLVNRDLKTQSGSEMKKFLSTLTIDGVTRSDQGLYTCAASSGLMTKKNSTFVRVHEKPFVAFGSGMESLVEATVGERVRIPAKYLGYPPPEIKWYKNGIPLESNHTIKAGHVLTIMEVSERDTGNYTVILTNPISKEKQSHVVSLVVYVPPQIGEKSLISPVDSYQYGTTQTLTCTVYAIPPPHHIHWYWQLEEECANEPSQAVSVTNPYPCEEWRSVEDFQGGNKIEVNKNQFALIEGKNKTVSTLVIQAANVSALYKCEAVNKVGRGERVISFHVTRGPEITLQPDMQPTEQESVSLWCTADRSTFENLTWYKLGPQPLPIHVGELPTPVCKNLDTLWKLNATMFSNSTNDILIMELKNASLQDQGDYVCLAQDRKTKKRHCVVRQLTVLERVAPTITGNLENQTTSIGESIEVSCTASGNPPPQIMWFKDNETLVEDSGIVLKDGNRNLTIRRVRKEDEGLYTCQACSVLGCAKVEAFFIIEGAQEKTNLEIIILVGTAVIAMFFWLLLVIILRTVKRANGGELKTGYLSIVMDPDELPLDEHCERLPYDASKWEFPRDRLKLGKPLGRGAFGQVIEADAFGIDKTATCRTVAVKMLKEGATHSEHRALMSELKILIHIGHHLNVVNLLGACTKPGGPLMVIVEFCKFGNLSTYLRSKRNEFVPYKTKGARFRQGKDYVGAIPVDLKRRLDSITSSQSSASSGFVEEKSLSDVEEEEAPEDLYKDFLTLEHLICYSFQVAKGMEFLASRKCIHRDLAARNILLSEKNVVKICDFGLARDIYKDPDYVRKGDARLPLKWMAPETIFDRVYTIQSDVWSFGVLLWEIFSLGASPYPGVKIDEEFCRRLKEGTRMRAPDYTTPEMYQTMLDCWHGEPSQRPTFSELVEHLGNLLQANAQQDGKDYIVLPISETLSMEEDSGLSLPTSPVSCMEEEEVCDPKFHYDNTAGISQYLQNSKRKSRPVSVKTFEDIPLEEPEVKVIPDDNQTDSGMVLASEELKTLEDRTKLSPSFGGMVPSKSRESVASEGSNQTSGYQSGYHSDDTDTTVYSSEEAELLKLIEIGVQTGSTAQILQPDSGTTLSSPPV
Chain of LCK (P06239 whole entry): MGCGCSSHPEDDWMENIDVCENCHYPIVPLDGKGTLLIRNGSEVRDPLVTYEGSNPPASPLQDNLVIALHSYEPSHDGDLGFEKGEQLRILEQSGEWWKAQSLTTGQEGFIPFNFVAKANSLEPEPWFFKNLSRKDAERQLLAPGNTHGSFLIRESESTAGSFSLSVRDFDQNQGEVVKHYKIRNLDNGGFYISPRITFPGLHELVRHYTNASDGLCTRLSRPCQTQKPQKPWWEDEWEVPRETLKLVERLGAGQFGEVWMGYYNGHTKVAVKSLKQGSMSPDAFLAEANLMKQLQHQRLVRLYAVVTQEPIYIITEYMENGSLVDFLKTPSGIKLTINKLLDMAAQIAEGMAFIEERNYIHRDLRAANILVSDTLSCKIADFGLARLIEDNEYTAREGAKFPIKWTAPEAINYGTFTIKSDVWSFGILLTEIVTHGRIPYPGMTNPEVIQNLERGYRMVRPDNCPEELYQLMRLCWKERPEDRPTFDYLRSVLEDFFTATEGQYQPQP
Chain of FLT4/VEGFR3 (P35916 25-1363): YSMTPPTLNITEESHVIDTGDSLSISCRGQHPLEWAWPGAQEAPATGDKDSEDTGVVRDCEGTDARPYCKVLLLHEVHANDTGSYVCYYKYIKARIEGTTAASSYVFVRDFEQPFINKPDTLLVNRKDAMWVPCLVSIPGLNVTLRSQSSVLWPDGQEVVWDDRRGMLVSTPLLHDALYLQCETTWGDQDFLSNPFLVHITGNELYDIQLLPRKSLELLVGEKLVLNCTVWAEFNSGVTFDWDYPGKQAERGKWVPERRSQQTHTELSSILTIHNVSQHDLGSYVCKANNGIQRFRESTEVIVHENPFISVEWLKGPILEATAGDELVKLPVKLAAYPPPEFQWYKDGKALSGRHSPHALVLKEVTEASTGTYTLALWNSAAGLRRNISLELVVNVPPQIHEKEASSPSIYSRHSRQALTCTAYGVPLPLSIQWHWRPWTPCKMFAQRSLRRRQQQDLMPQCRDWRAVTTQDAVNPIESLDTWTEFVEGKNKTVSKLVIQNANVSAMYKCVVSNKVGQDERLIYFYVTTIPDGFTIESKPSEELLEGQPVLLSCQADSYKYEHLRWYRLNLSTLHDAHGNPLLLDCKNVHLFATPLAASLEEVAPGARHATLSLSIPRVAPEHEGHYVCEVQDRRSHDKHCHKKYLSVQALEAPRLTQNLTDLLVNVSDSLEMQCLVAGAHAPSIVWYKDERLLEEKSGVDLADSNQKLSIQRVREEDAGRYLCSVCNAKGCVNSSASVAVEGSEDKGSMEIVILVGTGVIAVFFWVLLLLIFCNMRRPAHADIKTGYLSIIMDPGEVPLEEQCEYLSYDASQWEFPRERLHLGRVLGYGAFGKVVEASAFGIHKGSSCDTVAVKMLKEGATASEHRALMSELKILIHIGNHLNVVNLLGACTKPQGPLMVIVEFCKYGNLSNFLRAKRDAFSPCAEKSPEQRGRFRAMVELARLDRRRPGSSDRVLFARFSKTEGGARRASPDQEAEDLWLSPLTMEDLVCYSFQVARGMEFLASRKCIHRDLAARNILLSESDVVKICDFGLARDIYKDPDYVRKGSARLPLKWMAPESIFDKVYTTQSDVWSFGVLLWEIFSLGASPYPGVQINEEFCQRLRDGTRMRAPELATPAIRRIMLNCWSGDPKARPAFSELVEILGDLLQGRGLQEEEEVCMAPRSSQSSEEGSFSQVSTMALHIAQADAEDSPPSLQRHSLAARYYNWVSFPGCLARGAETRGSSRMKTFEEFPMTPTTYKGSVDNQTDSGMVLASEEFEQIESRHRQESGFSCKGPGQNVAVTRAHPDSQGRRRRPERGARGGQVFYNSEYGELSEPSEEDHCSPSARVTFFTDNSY
Chain of CK2α (CK2a) (P68400 whole entry): as the sequence (P68400 whole entry) above

Structure (SMILES): CC(C)=CC(=O)c1coc2ccc(O)cc12 [Ric149]
- CK2-activity at 10 μM (CK2 holoenzyme): 61%^

Structure (SMILES): CC1=C(Br)COc2c1ccc(O)c2Br [DBC, 3,8-dibromo-7-hydroxy-4-methyl-chromene]
- IC50 (CK2): 100 nM

Structure (SMILES): O=C(O)Cc1c2ccccc2n2c1[nH]c(=O)c1ccccc12 [IQA, (5-oxo-5,6-dihydroindolo[1,2-a]quinazolin-7-yl) acetic acid]
- stability in aqueous media [1]: unstable in aqueous media

Structure (SMILES): CCOC(=O)c1oc2ccc(OC(C)=O)c(CNC(C)=O)c2c1NC(C)=O [RicFur]
- CK2-activity at 10 μM (CK2 holoenzyme): 110%^

Structure (SMILES): C=CC1=C(C)c2cc3[n-]c(cc4nc(cc5[n-]c(cc1n2)c(C)c5C=C)C(C)=C4CCC(=O)O)c(CCC(=O)O)c3C.[Fe+2] [Haematin]
- IC50 (CK2): 550 nM

Structure (SMILES): O=c1cc(-c2ccc(O)cc2)oc2cc(O)cc(O)c12 [apigenin]
- IC50 (CK2): ~1000 nM

Structure (SMILES): Cc1ccc(N/C=C2\C(=O)CCc3c2oc2c(Cl)c(Cl)c(O)cc32)cc1 [TF, (Z)-6,7-dichloro-1,4-dihydro-8-hydroxy-4-[(4-methylphenylamino)methylene]-dibenzo[b,d]furan-3(2H)-one]
- kinase activity LBK1 (LBK1): clear increase in activity
- Activity Aurora A (Aurora A): 11.00%
- kinase activity PAK4 (PAK4): clear increase in activity
- Activity PKD2/PRKD2 (PKD2/PRKD2): 20.90%
- Activity LCK (LCK): 29.20%
- Activity SGK1 (d1-59, S422D) (SGK1 (d1-59, S422D)): 14.16%
- Activity FLT4/VEGFR3 (FLT4/VEGFR3): 19.68%
- kinase activity IRAK4 (IRAK4): clear increase in activity
- Activity KDR/VEGFR2 (KDR/VEGFR2): 13.05%
- kinase activity MAPK14 (MAPK14): clear increase in activity
- Activity PIM1 (PIM1): 19.90%
- remaining activity at 10 µM (CK2α′ (CK2a2)): 35%
- remaining activity at 10 µM (CK2α (CK2a)): 24%
- bands of the 89 kDa PARP fragment ([2]; from 50 μM, 24 h and 48 h): increased in intensity in a concentration-dependent manner
- mode of inhibition (CK2 holoenzyme; IC50 at 8 different ATP concentrations): ATP competitive inhibitor
- Ki (CK2 holoenzyme; Y-axis intersection of IC50 vs ATP concentration (8 ATP concentrations), read-out: inhibition constant Ki): 14.7 nM
- IC50 (CK2 holoenzyme): 30 nM
- endogenous CK2 activity of LNCaP cells [3]: 50%
- number of the 63 PK inhibited (reduction in activity of >50%) in addition to CK2α and CK2α′ [4]: twelve
- viability at 25 µM (LNCaP cells; 25 μM, 24 h): 45%
- viability at 25 µM (LNCaP cells; 25 μM, 48 h): 37%
- viability at 25 µM (LNCaP cells; 25 μM, 72 h): 14%
- viability at 50 µM (LNCaP cells; 24 h): 30%
- viability at 50 µM (LNCaP cells; 48 h): 15%
- viability at 50 µM (LNCaP cells; 72 h): 5%
- viability at 75 µM (LNCaP cells; 24 h): 31%
- viability at 75 µM (LNCaP cells; 48 h): 12%
- viability at 75 µM (LNCaP cells; 72 h): 3%

Structure (SMILES): CCOC(=O)c1oc2c(Cl)c(Cl)c(OC(C)=O)c(C#N)c2c1N [Ric138]
- IC50 (CK2 holoenzyme): 2400 nM

Structure (SMILES): CC(=O)Oc1c(Cl)c(Cl)c2oc(C(=O)C=C(C)C)c(N)c2c1C#N [Ric152]
- IC50 (CK2 holoenzyme): 200 nM

Structure (SMILES): O=c1c2c(O)cccc2oc2c([N+](=O)[O-])ccc(O)c12 [MNX, 1,8-dihydro-4-nitroxanthen-9-one]
- IC50 (CK2): 400 nM

Structure (SMILES): Brc1c(Br)c(Br)c2[nH]nnc2c1Br [TBB, 4,5,6,7-tetrabrombenzotriazole]
- solubility in water [5]: relatively poor solubility in water
- bands of the 89 kDa PARP fragment ([2]; 25 μM): a faint band could be seen at 89 kDa
- bands of the 89 kDa PARP fragment ([2]; from 50 μM, 24 h and 48 h): almost identical results
- CK2 activity of LNCaP cell lysate ([3]; 75 μM, 24 h, called most probably a rogue result): 90%
- endogenous CK2 activity of LNCaP cells [3]: 50%
- viability of LNCaP cells (LNCaP cells; 25 μM, 72 h): no effects were observed
- viability at 75 µM (LNCaP cells; 24 h): 90%
- viability at 75 µM (LNCaP cells; 48 h): 45%
- viability at 75 µM (LNCaP cells; 72 h): 17%

Reference: US9303005B2, “Use of dibenzofuranone derivatives to inhibit kinases” (priority 2010, dated 2016)
